Test results as given in patent US20050170360A1, “Variant neuronal nicotinic alpha-7 receptor and methods of use” (priority 2004, published 2005).
Like-named read-outs stand apart in the source and are kept apart here.

Tests used:
[1] = target: L247T mutant (UniProt P22770, L270T, species not given); format: cell-based; settings: for type of activity (agonist / antagonist): L247T
[2] = target: wild-type α7 nAChR (Rattus norvegicus, UniProt Q05941); experiment: Two-electrode voltage-clamp recording of Xenopus oocytes expressing wild-type α7
Description: Mature (>9 cm) female Xenopus laevis African toads (Nasco, Ft. Atkinson, Wis.) were used as a source of oocytes. Prior to surgery, frogs were anesthetized by placing the animal in a 2 g/L solution of MS222 (3-aminobenzoic acid ethyl ester). Oocytes were removed from an incision made in the abdomen.
(§3) Subsequently, stage 5 oocytes were isolated and injected with 50 nl each of a mixture of the appropriate subunit cRNAs following harvest. Recordings were made 3 to 21 days after injection depending on the cRNAs being tested.
(§4) Voltage-clamp recording of whole oocate responses. Data were obtained by means of two-electrode voltage-clamp recording. […] This extracellular solution was used for all experiments unless otherwise noted.
(§5) Bath solution and drug applications are applied through a linear perfusion system to oocytes placed in Lucite chamber with a total volume of 0.5 ml. Drug delivery involves pre-loading a 1.8 ml length of tubing at the terminus of the perfusion system, while a Mariotte flask filled with Ringer's solution is used to maintain constant perfusion. Applications of drug solutions are then synchronized with acquisition. […] In addition, some oocyte recordings were made using a beta version of the OpusXpress 6000A (Axon Instruments, Union City, Calif.). OpusXpress is an integrated system that provides automated impalement and voltage clamp, which in our case permitted the study of four oocytes in parallel. Cells were automatically perfused with bath solution, and agonist solutions were delivered from a 96-well compound plate. In experiments using the OpusXpress system, the voltage and current electrodes were filled with 3 M KCl. In all experiments, bath flow rates were set at 6 ml/minute.
(§6) Experimental protocols and analysis of data from Xenopus oocytes. Current responses to drug application were studied under two-electrode voltage clamp at a holding potential of −50 mV unless otherwise noted (−60 mV for the OpusXpress system). Holding currents immediately prior to agonist application were subtracted from measurements of the peak response to agonist. All drug applications were separated by a wash period of 5 minutes unless otherwise noted. […] Means and standard errors (SEM) were calculated from the normalized responses of at least four oocytes for each experimental concentration.
(§7) For concentration-response relations, data were plotted using Kaleidagraph 3.0.2 (Abelbeck Software; Reading, Pa.), and curves were generated using the Hill equation: [formula] where Imax denotes the maximal response for a particular agonist/subunit combination, and n represents the Hill coefficient. Imax, n, and the EC50 were all unconstrained for the fitting procedures.
(§8) Calculations of peak amplitudes and net charge were made using pClamp either during acquisition or during subsequent Clampfit analysis.

[3] = target: rat α7 TM2 T6'S (Rattus norvegicus, UniProt Q05941, T267S); experiment: Two-electrode voltage-clamp recording of Xenopus oocytes expressing α7 TM2 T6'S mutant
Description: Expression in Xenopus oocvtes. Mature (>9 cm) female Xenopus laevis African toads (Nasco, Ft. Atkinson, Wis.) were used as a source of oocytes. Prior to surgery, frogs were anesthetized by placing the animal in a 2 g/L solution of MS222 (3-aminobenzoic acid ethyl ester). Oocytes were removed from an incision made in the abdomen.
as §3, §4, §5, §6, §7, §8

[4] = target: T1, rat α7 TM2 T6'F (Rattus norvegicus, UniProt Q05941, T267F); experiment: Two-electrode voltage-clamp recording of Xenopus oocytes expressing α7 TM2 T6'F mutant; format: cell-based
T1 construct: expressed in transfected cells; host or cells: Xenopus laevis oocytes injected with cRNA
Excerpt: Site-directed mutagenesis.
(§1) Expression in Xenopus oocvtes.
(§2) Voltage-clamp recording of whole oocate responses.

[5] = target: T2, muscle-type receptors (Mus musculus, UniProt P02716+P04756); experiment: Two-electrode voltage-clamp recording of Xenopus oocytes expressing muscle-type receptors; format: cell-based
T2 construct: expressed in transfected cells; host or cells: Xenopus laevis oocytes injected with cRNA
Excerpt: as §1, §2

In the case of `NCCc1c[nH]c2ccc(O)cc12` [5-HT], the “type of activity (agonist / antagonist)” value [1] is reported as “agonist”, the “type of activity (agonist / antagonist / potentiation)” value ([2]; Wild type) is reported as “antagonist” and the “type of activity (agonist / antagonist / potentiation)” value ([3]; T6'S) is reported as “antagonist”.
For `Oc1ccc2[nH]ccc2c1` [5HI, 5-hydroxy-indole], the “type of activity (agonist / antagonist / potentiation)” value ([2]; Wild type) was “potentiates” and the “type of activity (agonist / antagonist / potentiation)” value ([3]; T6'S) was “does not potentiate”.
In the case of `O=C1NCC2(CN3CCC2CC3)O1` (centres unmarked) [AR-R17779], the “% agonist” value ([2]; Wild type) is reported as 78% agonist 10 μM and the “% agonist” value ([3]; T6'S) is reported as 90% agonist 30 μM.
With `C[N+](C)(C)CCO` [Choline] the EC50 [1] was 12 µM, the EC50 [2] was 300 µM and the “% agonist” value ([2]; Wild type) was 100% agonist 300 μM. For the same compound, the EC50 [3] was 2000 µM, the EC50 ([3]; EC50, T6'S column) was roughly 360 µM and the “% agonist” value ([3]; T6'S) was 95% agonist 2 mM.
With `O=c1cccc2n1C[C@@H]1CNC[C@H]2C1` [Cytisine] the “% agonist” value [2] was 73% agonist 13 μM, the EC50 [2] was 13 µM and the “% agonist” value [3] was 80% agonist 43 μM. The EC50 [3] was 43 µM.
`COc1ccc(/C=C2\CCCN=C2c2cccnc2)c(OC)c1` [GTS-21 (DMXB)] was tested, and the “type of activity (agonist / antagonist)” value [1] was “full”, the EC50 [2] was 5 µM and the “% agonist” value ([2]; Wild type) was 32%. The EC50 [3] was 3 µM and the “% agonist” value ([3]; T6'S) was 12%.
For `C[N+](C)(C)CCCCCC[N+](C)(C)C` [Hexamethonium], the “type of activity (agonist / antagonist)” value [1] was “agonist”, the “type of activity (agonist / antagonist / potentiation)” value ([2]; Wild type) was “antagonist” and the “type of activity (agonist / antagonist / potentiation)” value ([3]; T6'S) was “antagonist”.
In the case of `CNCC/C=C/c1cccnc1` [TC-2403], the EC50 [2] is reported as 240 µM, the “% agonist” value ([2]; Wild type) is reported as 16% and the EC50 [3] is reported as 400 µM. The “% agonist” value ([3]; T6'S) was 18% agonist.
In the case of `CN1[C@@H]2CC[C@H]1C[C@@H](OC(=O)c1c[nH]c3ccccc13)C2` [Tropisetron], the “% agonist” value ([2]; Wild type) is reported as 38% and the “% agonist” value ([3]; T6'S) is reported as 30%.
With `COc1cc2c3cc1Oc1cc(ccc1O)C[C@@H]1c4c(cc(OC)c(O)c4Oc4ccc(cc4)C[C@@H]3N(C)CC2)CC[N+]1(C)C` [Tubocurarine] the “type of activity (agonist / antagonist)” value [1] was “agonist”, the “type of activity (agonist / antagonist / potentiation)” value ([2]; Wild type) was “antagonist” and the “type of activity (agonist / antagonist / potentiation)” value ([3]; T6'S) was “antagonist”.
With `[Zn+2]` [Zinc] the “type of activity (agonist / antagonist)” value [1] was “agonist”, the “type of activity (agonist / antagonist / potentiation)” value ([2]; Wild type) was “antagonist” and the “type of activity (agonist / antagonist / potentiation)” value ([3]; T6'S) was “antagonist”.
With `C[N+](C)(C)CCOC(=O)CCC(=O)OCC[N+](C)(C)C` [succinylcholine] the activation of receptor ([4]; 100 μM succinylcholine) was “dramatic increase in sensitivity”, the concentration-response function ([4]; full range of concentrations) was “relatively potent, full agonist” and the type of activity [5] was “Selective Agonist”. The activation of receptor [2] was “relatively ineffective”, the concentration-response function ([2]; full range of concentrations) was “respond poorly” and the activation of receptor [3] was “virtually no response”. The concentration-response function ([3]; full range of concentrations) was “respond poorly”.
